Data on two compounds can be found in patent US8722649B2, “Alpha-chloro and alpha-bromo phosphonate analogs of lysophosphatidic acid and methods of making and using thereof” (University of Utah Research Foundation, priority 2007, dated 2014).

A word on the EC50: it is the midpoint of the concentration-response curve. By IC50 is commonly meant the concentration that inhibits the measured activity by half.

SMILES strings stand for the structures.

One experiment concerns the target T1, PPARγ (Homo sapiens, UniProt P37231).
T1 construct: expressed in transfected cells; host or cells: CV-1 cells, transient (LipofectAMINE 2000)
T1 sequence (P37231 1-505): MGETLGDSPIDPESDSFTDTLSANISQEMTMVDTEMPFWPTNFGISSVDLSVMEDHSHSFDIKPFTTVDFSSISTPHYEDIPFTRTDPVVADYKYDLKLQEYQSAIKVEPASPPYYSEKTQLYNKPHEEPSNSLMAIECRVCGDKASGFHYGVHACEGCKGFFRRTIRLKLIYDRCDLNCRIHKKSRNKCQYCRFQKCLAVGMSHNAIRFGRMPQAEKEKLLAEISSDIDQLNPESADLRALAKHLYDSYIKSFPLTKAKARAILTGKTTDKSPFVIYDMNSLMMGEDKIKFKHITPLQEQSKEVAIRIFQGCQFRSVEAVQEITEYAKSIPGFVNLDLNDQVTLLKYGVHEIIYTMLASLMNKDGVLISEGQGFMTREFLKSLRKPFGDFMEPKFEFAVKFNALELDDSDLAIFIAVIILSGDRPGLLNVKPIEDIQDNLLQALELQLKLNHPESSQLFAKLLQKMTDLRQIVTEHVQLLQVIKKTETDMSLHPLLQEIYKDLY
Briefly: PPARγ activation assay (PPRE-Acox-Rluc reporter in CV-1 cells). The note with it: 10 μM test analogue, 20 h. In kind it is cell-based. Here is the method: PPARγ activation assay. PPARγ activation was performed using CV-1 cells transfected with an acyl-coenzyme A oxidase-luciferase (PPRE-Acox-Rluc) reporter gene construct as previously reported. Briefly, CV-1 cells were plated in 96-well plates at a density of 1×10^4 cells per well in Dulbecco's modified Eagle's medium supplemented with 10% fetal bovine serum. The next day, the cells were transiently transfected with 125 ng of pGL3-PPRE-Acox-Rluc, 62.5 ng of pcDNA3.1 PPARγ, and 12.5 ng of pSV-β-galactosidase (Promega) using LipofectAMINE 2000 (Invitrogen). Twenty-four hours after transfection, cells were treated with OptiMEM (Invitrogen) containing 10 μM Rosiglitazone or 10 μM of the test analogue dissolved in DMSO for 20 h. Luciferase and β-galactosidase activities were measured with Steady-Glo® Luciferase Assay System (Promega) and the Galacto-Light Plus™ system (Applied Biosystems), respectively. Samples were run in quadruplicate and the mean ±standard errors were calculated. Data are representative of at least two independent transfections.

The next experiment concerns the target T2, human LPA1 (Homo sapiens, UniProt Q92633).
T2 construct: expressed in transfected cells
As to the kind of experiment: Ca2+ mobilization assay, LPA1. Format: cell-based. Here is the method:
Receptor activation using Ca^2+ mobilization assay for diastereomers of 1 (also represented as 19b). The rat hepatoma (RH7777) cell lines individually expressing either LPA1, LPA2, LPA3 or LPA5 receptors and Chinese hamster ovary (CHO) cell line were analyzed to examine agonism and antagonism. […] CHO cells stably expressing either vector or LPA4 were kindly gifted from Dr. Shimizu (University of Tokyo, Tokyo, Japan).
Stable transformants of LPA1/2/3 receptors. RH7777 cells stably expressing each receptor were plated onto poly-L-lysine (PLL) (0.1 mg/mL)-coated black-wall clear-bottom 96-well plates (Corning Incorporated Life Sciences, Acton, Mass.) at a density of 5×10^4 cells/well and cultured overnight. The following day, the culture medium was replaced with modified Krebs buffer (120 mM NaCl, 5 mM KCl, 0.62 mM MgSO4, 1.8 mM CaCl2, 10 mM HEPES, 6 mM glucose, pH 7.4), and the cells were serum starved for 6 h. Subsequently, cells were loaded with Fura-2 AM (Invitrogen, Carlsbad, Calif.) for 35 min in modified Krebs buffer containing 2% (v/v) pluronic acid.
After incubating the cells with Fura-2 AM, the cells were rinsed with Krebs buffer and changes in the intracellular Ca^2+ concentration were monitored by determining the ratio of emitted light intensities at 520 nm in response to excitation at 340 and 380 nm using FLEXstation II (Molecular Devices, Sunnyvale, Calif.). Each well was monitored for 80-120 sec. For testing agonist activity of the compounds, the test compounds were added automatically after 15 sec of baseline measurement. To determine antagonist properties, varying concentrations of the compounds were mixed with a constant concentration of LPA and responses were monitored. Each test was performed in quadruplicate. EC50, IC50, and Ki values were calculated by fitting a sigmoid function to data points with the nonlinear curve-fitting feature of KaleidaGraph (Synergy Software, Essex Junction, Vt.).
Receptor activation using Ca^2+ mobilization assay. The assay for mobilization of intracellular Ca^2+ was performed as described. Briefly, rat hepatoma RH7777 cells stably expressing human LPA1, LPA2, or LPA3, and CHO cells stably expressing LPA4, were loaded with Fura-2 AM (Molecular Probes). Using a FLEXStation (Molecular Devices, Sunnyvale, Calif.), changes in intracellular Ca^2+ concentration were monitored. Ligand-induced changes in fluorescence were monitored for 80-120 seconds. Ca^2+ transients were quantified automatically by calculating the difference between maximum and baseline ratio values for each sample. To determine antagonist properties, different concentrations of each analogue were mixed with either palmitoyl (16:0) or oleoyl (18:1) LPA (200 nM for LPA1 and LPA3, 10 nM for LPA2, and 400 nM for LPA4) (Avanti Polar Lipids, Inc., […], Ala.) and responses were recorded. Each test was performed in quadruplicate. EC50, IC50, and Ki values were calculated as described. The ligand properties of the compounds were evaluated using Ca^2+ mobilization assay for assessing the activation/inhibition of LPA1, LPA2, and LPA3 expressed in RH7777 cells and LPA4 expressed in CHO cells. Table l illustrates calcium responses elicited through the activation of human LPA1, LPA2, LPA3 and LPA4 receptors. These cell lines have been used extensively for the characterization of LPA GPCR ligands because RH7777 cells are intrinsically unresponsive to LPA and CHO cells show minimal endogenous responses to LPA unless transfected with LPA4.

A further experiment deals with T3, recombinant ATX-HA (Homo sapiens, UniProt Q13822).
T3 construct: HA
As to the kind of experiment: Autotaxin assay (FS-3 hydrolysis). In kind it is biochemical. The note with it: 10.0 μM; FS-3 substrate; preliminary single-dose screen. Here is the method:
Autotaxin Assay. This assay utilizes FS-3 (Echelon Biosciences, Inc. Salt Lake City, Utah) as substrate and recombinant ATX-HA. For analysis, 50 μl of ATX-HA (0.25 μg) in assay buffer (Tris 50 mM, NaCl 140 mM, KCl 5mM, CaCl2 1 mM, MgCl2 1 mM, pH 8.0) was mixed with 25 μl of FS-3 (1 μM final concentration in assay buffer) and 25 μl of test compound dissolved in assay buffer containing 1:1.5 bovine serum albumin in 96-well plate. FS-3 fluorescence was monitored using FLEXstation fluorescence plate reader at a time zero and after 2 hours of incubation at 37° C. at excitation and emission wavelengths of 485 nm and 538 nm, respectively. Data was normalized to the corresponding vehicle control and the mean±standard deviation of triplicate wells were expressed as percent ATX inhibition. IC50, and Ki values were calculated as described.

For the next experiment, the system named is MDA-MB-231 cells. As to the kind of experiment: Orthotopic breast cancer xenograft. In kind it is in vivo, nude mice. Here is the method: Orthotopic Human Breast Cancer Models. 4-week-old female athymic nude mice (Charles River Laboratories) were anesthetized by intraperitoneal injection of ketamine (80 mg/kg) and xylazine (10 mg/kg),according to the protocol approved by the University of Utah Institutional Animal Care and Use Committee (IACUC). Then the thoracic skin was sterilized with iodine and alcohol swabs.
MDA-MB-231 were trypsinized and resuspended in 2.5% CMHA-S and 3% gelatin-DTPH (v:v=1:1). Then, one volume of 4% PEGDA solution was added to four volumes of the cell suspension, and the resulting suspension was mixed gently by vortexing. The final cell concentration was 5×10^7 cells/ml. When the cell suspension was becoming viscous (ca. 3-5 min at 20° C.), 200 uL of gel was injected subcutaneously into the fourth mammary fat pad of each mouse, using a total of six mice per group.
The assessment of chemotherapy on breast cancer. The mice were randomly divided into 4 groups, including control (physiological saline), paclitaxel, LPA antagonist (19b), and paclitaxel followed by 19b. Six mice for each cell line were necessary to get statistically significant results according to literature. The control group received physiological saline i.p. injection twice per week starting at two weeks after the cell transplantation and ending at two weeks after the treatment. The treatment groups received i.p. administration of paclitaxel (10 mg/kg/day) or 19b (10 mg/kg/day) twice per week with the same period of control group. One additional group included 2 dose of paclitaxel followed by 2 dose of 19b with the same period of control group. The treatment was received […] twice per week for 2 weeks total.
The body weight and tumor size were measured twice per week, and general clinical status of the animals was also assessed every day. Perpendicular tumor diameters were measured using a vernier scale caliper and tumor volume estimated using the formula for ellipsoid: […] (mm^3)=[width(mm)^2×length(mm)]/2. Data are expressed as median tumor areas with interquartile ranges.
Animals were euthanized at 4 weeks postinjection or once any signs of broken skin caused by the extension of tumor are found. Tumors were excised with surrounding tissues for histological evaluation. Analysis of variance was used to analyze the statistical difference on tumor growth between different groups. The results are in FIG. 8, where it is shown that the volume of the tumors is the lowest when mice were treated with paclitaxel followed by the administration of 19b.
Xenograft establishment and chemotherapy. […] The tumor sizes were measured and calculated by formula: tumor size (mm^3)=[width (mm)]^2×[length (mm)]/2. […]

T2 sequence (Q92633 whole entry): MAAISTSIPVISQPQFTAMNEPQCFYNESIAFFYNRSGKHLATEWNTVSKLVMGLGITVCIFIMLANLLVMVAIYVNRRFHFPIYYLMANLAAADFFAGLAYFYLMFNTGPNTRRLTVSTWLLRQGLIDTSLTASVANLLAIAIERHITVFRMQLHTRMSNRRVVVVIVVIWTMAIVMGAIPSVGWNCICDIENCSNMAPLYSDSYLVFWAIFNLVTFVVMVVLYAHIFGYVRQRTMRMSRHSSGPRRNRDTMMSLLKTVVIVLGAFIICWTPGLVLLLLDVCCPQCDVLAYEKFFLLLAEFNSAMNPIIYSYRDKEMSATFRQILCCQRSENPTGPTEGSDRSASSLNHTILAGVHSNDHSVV

For `CCCCCCCC/C=C\CCCCCCCC(=O)OC[C@@H](O)COP(=O)(O)O` [LPA (18:1), reference compound], the “PPARγ (PPRE luciferase reporter gene assay)” value at PPARγ is “Ago-”. At human LPA1 (RH7777 cells stably expressing LPA1, agonist mode), the EC50 is 100 ± 13.2 nM. In addition, the 50% inhibitory concentration (IC50) on human LPA1 (antagonist mode vs 200 nM LPA, PA = partial antagonist, read-out: LPA1 IC50) is greater than 30000 nM. At recombinant ATX-HA, the “Inhibition (%) of autotaxin (ATX) phosphodiesterase activity” value is 88.4 ± 1.3%.

In the case of `CC(=O)O[C@H]1C(=O)[C@@]2(C)[C@H]([C@H](OC(=O)c3ccccc3)[C@]3(O)C[C@H](OC(=O)[C@H](O)[C@@H](NC(=O)c4ccccc4)c4ccccc4)C(C)=C1C3(C)C)[C@]1(OC(C)=O)CO[C@@H]1C[C@@H]2O` [Taxol, reference compound], the “tumor blood vessel density / angiogenesis (CD31), single agent” value in the experiment with MDA-MB-231 cells (10 mg/kg i.p.) is “statistically different from the control”. In addition, the “tumor size, single agent” value with MDA-MB-231 cells (10 mg/kg i.p. twice per week for two weeks) was “reduction of tumor size”.
